According to patent US20250041307A1, “Uses of Bicyclic Compounds for the Treatment of Diseases” (Athira Pharma, Inc., priority 2021, published 2025):

Tested on: Rat primary cortical neuron cultures
Experiment: Protection from neurotoxicity in vitro (Cell Titer-Glo viability)
Format: cell-based
Parameters: key to Protection of cell viability, statistical significance vs. insult control: NS=not significant; +=p<0.05; ++=p<0.01; +++=p<0.001
Method: HGF/MET signaling activation is expected to protect cells, including neurons, from cell death. […] Hydrogen peroxide (H2O2) treatment produces toxic oxidative stress. Bacteria-derived lipopolysaccharide (LPS) treatment induces inflammatory cell death. Treatment with excess glutamate (Glut) produces excitotoxicity in neuron cultures. Treatment with 1-methyl-4-phenylpyridinium (MPP^+) causes cell death by inhibition of mitochondrial function.
Rat primary cortical neuron cultures were grown at 37° C., 5% CO2 in Complete Neurobasal Medium supplemented with B27/GDNF/BDNF containing 10% FBS until maturity and were then seeded in 384-well plate at 5,000 cells/well. Cultures were then treated for 15 minutes with 1 uM, 100 nM, 10 nM, 1 nM, or 0.1 nM of compound 1a. Cells were then subjected to individual conditional insults for 24 hours at the following concentrations: H2O2 at 1 uM, LPS at 1 uM, glutamate at 25 uM, MPP+ at 500 uM. All treatments contained recombinant human HGF (R&D Systems) at a concentration of 5 ng/ml.
To quantify neuroprotection, cell viability was measured with the Cell Titer-Glo Luminescent Cell Viability Assay (Promega, Cat #G7571). Data was normalized to DMSO+HGF control set at 100% cell viability. Statistical analyses for each group (n=4) were performed using one-way ANOVA with Tukey's Multiple comparison test.
Data is reported as statistical significance vs. insult control, with NS=not significant, +=p<0.05, ++=p<0.01, and +++=p<0.001.

Structure (SMILES): CCC(C)CN1CC2N(C(=O)c3ccc(C(F)(F)F)cc3)CCC(=O)N2[C@@H](C)C1=O (stereo partly drawn) [Compound 1a]
- Neuroprotective effect on rat neurons in culture (broad range of concentrations, entire cohort of insults tested): effective neuroprotective treatment
- Protection of cell viability, statistical significance vs. insult control (insult Glutamate (25 uM) 24 hours, 0.1 nM + HGF (5 ng/ml)): +++ (+++=p<0.001)
- Protection of cell viability, statistical significance vs. insult control (insult Glutamate (25 uM) 24 hours, 1 nM + HGF (5 ng/ml)): +++ (+++=p<0.001)
- Protection of cell viability, statistical significance vs. insult control (insult Glutamate (25 uM) 24 hours, 100 nM (first column so headed) + HGF (5 ng/ml)): +++ (+++=p<0.001)
- Protection of cell viability, statistical significance vs. insult control (insult Glutamate (25 uM) 24 hours, 100 nM (second column so headed) + HGF (5 ng/ml)): +++ (+++=p<0.001)
- Protection of cell viability, statistical significance vs. insult control (insult Glutamate (25 uM) 24 hours, 1 uM + HGF (5 ng/ml)): +++ (+++=p<0.001)
- Protection of cell viability, statistical significance vs. insult control (insult H2O2 (1 uM) 24 hours, 0.1 nM + HGF (5 ng/ml)): +++ (+++=p<0.001)
- Protection of cell viability, statistical significance vs. insult control (insult H2O2 (1 uM) 24 hours, 1 nM + HGF (5 ng/ml)): +++ (+++=p<0.001)
- Protection of cell viability, statistical significance vs. insult control (insult H2O2 (1 uM) 24 hours, 100 nM (first column so headed) + HGF (5 ng/ml)): +++ (+++=p<0.001)
- Protection of cell viability, statistical significance vs. insult control (insult H2O2 (1 uM) 24 hours, 100 nM (second column so headed) + HGF (5 ng/ml)): +++ (+++=p<0.001)
- Protection of cell viability, statistical significance vs. insult control (insult H2O2 (1 uM) 24 hours, 1 uM + HGF (5 ng/ml)): +++ (+++=p<0.001)
- Protection of cell viability, statistical significance vs. insult control (insult LPS (1 uM) 24 hours, 0.1 nM + HGF (5 ng/ml)): +++ (+++=p<0.001)
- Protection of cell viability, statistical significance vs. insult control (insult LPS (1 uM) 24 hours, 1 nM + HGF (5 ng/ml)): NS
- Protection of cell viability, statistical significance vs. insult control (insult LPS (1 uM) 24 hours, 100 nM (first column so headed) + HGF (5 ng/ml)): +++ (+++=p<0.001)
- Protection of cell viability, statistical significance vs. insult control (insult LPS (1 uM) 24 hours, 100 nM (second column so headed) + HGF (5 ng/ml)): +++ (+++=p<0.001)
- Protection of cell viability, statistical significance vs. insult control (insult LPS (1 uM) 24 hours, 1 uM + HGF (5 ng/ml)): +++ (+++=p<0.001)
- Protection of cell viability, statistical significance vs. insult control (insult MPP+ (500 uM) 24 hours, 0.1 nM + HGF (5 ng/ml)): +++ (+++=p<0.001)
- Protection of cell viability, statistical significance vs. insult control (insult MPP+ (500 uM) 24 hours, 1 nM + HGF (5 ng/ml)): +++ (+++=p<0.001)
- Protection of cell viability, statistical significance vs. insult control (insult MPP+ (500 uM) 24 hours, 100 nM (first column so headed) + HGF (5 ng/ml)): +++ (+++=p<0.001)
- Protection of cell viability, statistical significance vs. insult control (insult MPP+ (500 uM) 24 hours, 100 nM (second column so headed) + HGF (5 ng/ml)): +++ (+++=p<0.001)
- Protection of cell viability, statistical significance vs. insult control (insult MPP+ (500 uM) 24 hours, 1 uM + HGF (5 ng/ml)): +++ (+++=p<0.001)
